Consider 21 compounds from US9656990B2, “Cathepsin cysteine protease inhibitors” (Merck Sharp & Dohme Corp., priority 2014, dated 2017).

SMILES strings stand for the structures.

Test [1] concerns the target human cathepsin K (UniProt P43236, Y175D/V274L, species not given). Description: Cathepsin K Assay. The format is biochemical. The note with it: IP from dose response curve; Z-Leu-Arg-AMC substrate, pH 5.5; read-out: hrbCat K (IP (nM)).
Test [2] addresses T1, human cathepsin F (Homo sapiens, UniProt Q9UBX1).
T1 sequence (Q9UBX1 271-484): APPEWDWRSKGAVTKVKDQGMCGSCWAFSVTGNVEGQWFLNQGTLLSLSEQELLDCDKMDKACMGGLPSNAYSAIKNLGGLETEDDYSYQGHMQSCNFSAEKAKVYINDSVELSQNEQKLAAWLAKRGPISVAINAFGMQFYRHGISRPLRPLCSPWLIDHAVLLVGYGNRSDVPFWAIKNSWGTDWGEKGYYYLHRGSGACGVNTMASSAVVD
Description: Cathepsin F Assay. The format is biochemical. The note with it: IP from dose response curve; Z-Phe-Arg-AMC substrate, pH 5.5; read-out: hCat F (IP (nM)). A digest of the protocol:
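Human cathepsin F (10 nM) preincubated 15 min at room temperature with compounds in 50 mM MES pH 5.5, 2.5 mM EDTA, 2.5 mM DTT, 10% DMSO. Z-Phe-Arg-AMC (8 μM) added; AMC release read by fluorescence (Ex 360/Em 460 nm) over 20 min, inhibition fit to dose-response model.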

For `CS(=O)(=O)C1CN(c2ccc(-c3cn(-c4ccc(F)cc4)nc3[C@@H]3CCCC[C@H]3C(=O)NC3(C#N)CC3)cc2)C1` [Example 94, (1R,2R)-N-(1-cyanocyclopropyl)-2-(1-(4-fluorophenyl)-4-(4-(3-(methylsulfonyl)azetidin-1-yl)phenyl)-1H-pyrazol-3-yl)cyclohexanecarboxamide], the IC50 in test [1] amounted to 2.57 nM; in test [2] it was 2780 nM.
Take `N#CC1(NC(=O)[C@@H]2CCCC[C@H]2c2nn(-c3ccc(Cl)cc3)cc2-c2ccc(N3CCS(=O)(=O)CC3)cc2)CC1` [Example 95, (1R,2R)-2-(1-(4-chlorophenyl)-4-(4-(1,1-dioxidothiomorpholino)phen-yl)-1H-pyrazol-3-yl)-N-(1-cyanocyclopropyl)cyclohex-anecarboxamide]: the IC50 in test [1] stood at 0.73 nM; in test [2], 402 nM.
Turning to `CC(C)(O)c1cccc(-n2cc(-c3ccc(N4CCS(=O)(=O)CC4)cc3)c([C@@H]3CCCC[C@H]3C(=O)NC3(C#N)CC3)n2)c1` [Example 96, (1R,2R)-N-(1-cyanocyclopropyl)-2-(4-(4-(1,1-dioxidothiomorpholino)phen-yl)-1-(3-(2-hydroxypropan-2-yl)phenyl)-1H-pyrazol-3-yl)cyclohexanecarboxamide], the IC50 worked out at 1.27 nM in test [1] and 824 nM in test [2].
In the same order, the values of `CC(C)(O)c1ccc(-n2cc(-c3ccc(N4CCS(=O)(=O)CC4)cc3)c([C@@H]3CCCC[C@H]3C(=O)NC3(C#N)CC3)n2)cc1` [Example 97, (1R,2R)-N-(1-cyanocyclopropyl)-2-(4-(4-(1,1-dioxidothiomorpholino)phen-yl)-1-(4-(2-hydroxypropan-2-yl)phenyl)-1H-pyrazol-3-yl)cyclohexanecarboxamide] are 0.8 nM and 764 nM.
For `N#CC1(NC(=O)[C@@H]2CCCC[C@H]2c2nn(-c3ccccc3F)cc2-c2ccc(N3CCS(=O)(=O)CC3)cc2)CC1` [Example 98, (1R,2R)-N-(1-cyanocyclopropyl)-2-(4-(4-(1,1-dioxidothiomorpholino)phen-yl)-1-(2-fluorophenyl)-1H-pyrazol-3-yl)cyclohexanecarboxamide], in that order: 0.91 nM and 946 nM.
For `N#CC1(NC(=O)[C@@H]2CCCC[C@H]2c2nn(-c3cccc(Cl)c3)cc2-c2ccc(N3CCS(=O)(=O)CC3)cc2)CC1` [Example 99, (1R,2R)-2-(1-(3-chlorophenyl)-4-(4-(1,1-dioxidothiomorpholino)phen-yl)-1H-pyrazol-3-yl)-N-(1-cyanocyclopropyl)cyclohex-anecarboxamide], in that order: 0.48 nM and 379 nM.
With `N#Cc1ccc(-n2cc(-c3ccc(N4CCS(=O)(=O)CC4)cc3)c([C@@H]3CCCC[C@H]3C(=O)NC3(C#N)CC3)n2)cc1` [Example 100, (1R,2R)-N-(1-cyanocyclopropyl)-2-(1-(4-cyanophenyl)-4-(4-(1,1-dioxidothiomorpholino)phen-yl)-1H-pyrazol-3-yl)cyclohexanecarboxamide], the IC50 is 0.87 nM in test [1] and 212 nM in test [2].
In the case of `N#Cc1cccc(-n2cc(-c3ccc(N4CCS(=O)(=O)CC4)cc3)c([C@@H]3CCCC[C@H]3C(=O)NC3(C#N)CC3)n2)c1` [Example 101, (1R,2R)-N-(1-cyanocyclopropyl)-2-(1-(3-cyanophenyl)-4-(4-(1,1-dioxidothiomorpholino)phen-yl)-1H-pyrazol-3-yl)cyclohexanecarboxamide], the IC50 came out at 0.99 nM in test [1] and 452 nM in test [2].
Regarding `N#CC1(NC(=O)[C@@H]2CCCC[C@H]2c2nn(-c3ccccc3Cl)cc2-c2ccc(N3CCS(=O)(=O)CC3)cc2)CC1` [Example 102, (1R,2R)-2-(1-(2-chlorophenyl)-4-(4-(1,1-dioxidothiomorpholino)phen-yl)-1H-pyrazol-3-yl)-N-(1-cyanocyclopropyl)cyclohex-anecarboxamide], the values for the IC50 in test [1] and in test [2] were 2.9 nM and 643 nM, respectively.
In the same order, the values of `Cc1cc(C#N)ccc1-n1cc(-c2ccc(N3CCS(=O)(=O)CC3)cc2)c([C@@H]2CCCC[C@H]2C(=O)NC2(C#N)CC2)n1` [Example 103, (1R,2R)-2-(1-(4-cyano-2-methylphenyl)-4-(4-(1,1-dioxidothiomorpholino)phen-yl)-1H-pyrazol-3-yl)-N-(1-cyanocyclopropyl)cyclohex-anecarboxamide] are 2.17 nM and 622 nM.
For `N#Cc1ccc(-n2cc(-c3ccc(N4CCS(=O)(=O)CC4)cc3)c([C@@H]3CCCC[C@H]3C(=O)NC3(C#N)CC3)n2)c(Cl)c1` [Example 104, (1R,2R)-2-(1-(2-chloro-4-cyanophenyl)-4-(4-(1,1-dioxidothiomorpholino)phen-yl)-1H-pyrazol-3-yl)-N-(1-cyanocyclopropyl)cyclohex-anecarboxamide], in that order: 2.02 nM and 411 nM.
In the same order, the values of `N#Cc1cc(Cl)ccc1-n1cc(-c2ccc(N3CCS(=O)(=O)CC3)cc2)c([C@@H]2CCCC[C@H]2C(=O)NC2(C#N)CC2)n1` [Example 105, (1R,2R)-2-(1-(4-chloro-2-cyanophenyl)-4-(4-(1,1-dioxidothiomorpholino)phen-yl)-1H-pyrazol-3-yl)-N-(1-cyanocyclopropyl)cyclohex-anecarboxamide] are 3.23 nM and 1260 nM.
With `N#Cc1cc(F)ccc1-n1cc(-c2ccc(N3CCS(=O)(=O)CC3)cc2)c([C@@H]2CCCC[C@H]2C(=O)NC2(C#N)CC2)n1` [Example 106, (1R,2R)-2-(1-(2-cyano-4-fluorophenyl)-4-(4-(1,1-dioxidothiomorpholino)phen-yl)-1H-pyrazol-3-yl)-N-(1-cyanocyclopropyl)cyclohex-anecarboxamide], the IC50 in test [1] turned out to be 2.88 nM; in test [2], 1920 nM.
In the case of `Cc1ccc(-n2cc(-c3ccc(N4CCS(=O)(=O)CC4)cc3)c([C@@H]3CCCC[C@H]3C(=O)NC3(C#N)CC3)n2)c(C#N)c1` [Example 107, (1R,2R)-2-(1-(2-cyano-4-methylphenyl)-4-(4-(1,1-dioxidothiomorpholino)phen-yl)-1H-pyrazol-3-yl)-N-(1-cyanocyclopropyl)cyclohex-anecarboxamide], the IC50 in test [1] came to 3 nM; in test [2], 1400 nM.
In the same order, the values of `N#CC1(NC(=O)[C@@H]2CCC(F)(F)C[C@H]2c2nn(-c3ccc(F)cc3)cc2-c2ccc(N3CCS(=O)(=O)CC3)cc2)CC1` [Example 108, (1R,2R)-N-(1-cyanocyclopropyl)-2-(4-(4-(1,1-dioxidothiomorpholino)phen-yl)-1-(4-fluorophenyl)-1H-pyrazol-3-yl)-4,4-difluorocyclohexanecarbox-amide] are 2.32 nM and 1010 nM.
In the case of `N#CC1(NC(=O)[C@@H]2CCCC[C@H]2c2nn(-c3ccc(C(O)(C(F)(F)F)C(F)(F)F)cc3)cc2-c2ccc(N3CCS(=O)(=O)CC3)cc2)CC1` [Example 109, (1R,2R)-N-(1-cyanocyclopropyl)-2-(4-(4-(1,1-dioxidothiomorpholino)phen-yl)-1-(4-(1,1,1,3,3,3-hexafluoro-2-hydroxypropan-2-yl)phenyl)-1H-pyrazol-3-yl)cyclohexanecarboxamide], the values for the IC50 in test [1] and in test [2] were 2.67 nM and 267 nM, respectively.
For `N#Cc1cc(-n2cc(-c3ccc(N4CCS(=O)(=O)CC4)cc3)c([C@@H]3CCCC[C@H]3C(=O)NC3(C#N)CC3)n2)ccc1F` [Example 110, (1R,2R)-2-(1-(3-cyano-4-fluorophenyl)-4-(4-(1,1-dioxidothiomorpholino)phen-yl)-1H-pyrazol-3-yl)-N-(1-cyanocyclopropyl)cyclohex-anecarboxamide], in that order: 0.83 nM and 275 nM.
For the compound `N#CC1(NC(=O)[C@@H]2CCCC[C@H]2c2nn(-c3ccc(OC(F)F)cc3)cc2-c2ccc(N3CCS(=O)(=O)CC3)cc2)CC1` [Example 111, (1R,2R)-N-(1-cyanocyclopropyl)-2-(1-(4-(difluoromethoxy)phenyl)-4-(4-(1,1-dioxidothiomorpholino)phen-yl)-1H-pyrazol-3-yl)cyclohexanecarboxamide], the IC50 worked out at 0.86 nM in test [1] and 392 nM in test [2].
For `N#CC1(NC(=O)[C@@H]2C[C@@H](F)CC[C@H]2c2nn(-c3ccc(F)cc3)cc2-c2ccc(N3CCS(=O)(=O)CC3)cc2)CC1` [Example 112, (1R,2R,5S)-N-(1-cyanocyclopropyl)-2-(4-(4-(1,1-dioxidothiomorpholino)phen-yl)-1-(4-fluorophenyl)-1H-pyrazol-3-yl)-5-fluorocyclohexanecarboxamide], in that order: 1.33 nM and 922 nM.
Consider `N#CC1(NC(=O)[C@@H]2CCCC[C@H]2c2nn(-c3cc(F)ccc3F)cc2-c2ccc(N3CCS(=O)(=O)CC3)cc2)CC1` [Example 114, (1R,2R)-N-(1-cyanocyclopropyl)-2-(1-(2,5-difluorophenyl)-4-(4-(1,1-dioxidothiomorpholino)phen-yl)-1H-pyrazol-3-yl)cyclohexanecarboxamide], for which the IC50 is 1.06 nM in test [1] and 633 nM in test [2].
In the same order, the values of `N#CC1(F)CCN(c2ccc(-c3cn(-c4ccc(F)cc4)nc3[C@@H]3CCCC[C@H]3C(=O)NC3(C#N)CC3)cc2)CC1` [Example 115, (1R,2R)-2-(4-(4-(4-cyano-4-fluoropiperidin-1-yl)phenyl)-1-(4-fluorophenyl)-1H-pyrazol-3-yl)-N-(1-cyanocyclopropyl)cyclohex-anecarboxamide] are 6.62 nM and 804 nM.
